Experimental data: patent US8349553B2, “Jasmonate based assays for identifying compounds that selectively inhibit mitochondrial bound hexokinases” (Ramot at Tel Aviv University Ltd., priority 2007, dated 2013)

Experiments:
[1] = test system: Molt-4 cells; experiment: Cellular ATP levels (CellTiter-Glo), Molt-4; assay type: cell-based, human; details: 60 minutes of exposure, various concentrations
Experimental: (§1) The CellTiter-Glo™ Luminescent Cell Viability Assay (Promega, Madison, Wis., U.S.A.) was employed (Fingrut, 2005). Upon completion of a given experiment, plates were equilibrated to room temperature. CellTiter-Glo™ reagent containing luciferin and luciferase was added to each well and the plates were mixed on an orbital shaker for 2 minutes to induce cell lysis. In the presence of ATP, Mg^2+ and molecular oxygen, mono-oxidation of luciferin is catalyzed by luciferase, generating a luminescence signal. Cells were then incubated for 10 minutes at room temperature to stabilize the luminescence signal. Luminescence was recorded using Kodak digital science—Image station 440 CD. Luminescence is directly proportional to ATP concentration. ATP depletion (% of control) was calculated in the following way: {(luminescence of control cells−luminescence of drug-treated cells)/luminescence of control cells}×100. In order to test the correlation between cellular ATP levels and the release of hexokinase from mitochondrial fraction different cancer cells, namely Molt-4 cells, BCL-1 leukemic cells and B16 melanoma tumors were exposed to various methyl jasmonate concentrations. […] CT26 and Molt-4 cells were then seeded in 24 well plates. CT26 cells were allowed to adhere over night. Cells were exposed to methyl jasmonate (MJ; 3 mM) for 1 hour. Trypan blue exclusion test was performed and cells were counted.

[2] = test system: BCL-1 leukemic cells; experiment: Cellular ATP levels (CellTiter-Glo), BCL-1; assay type: cell-based, murine; details: 60 minutes of exposure, various concentrations
Experimental: as §1

[3] = test system: CT26 cells; experiment: Trypan blue exclusion test, CT26; assay type: cell-based, murine; details: 3 mM, 1 hour
Experimental: Cell death was determined by trypan blue exclusion. […] Alternatively, cytotoxicity was determined using hemacolor staining. […] In order to test the correlation between cellular ATP levels and the release of hexokinase from mitochondrial fraction different cancer cells, namely Molt-4 cells, BCL-1 leukemic cells and B16 melanoma tumors were exposed to various methyl jasmonate concentrations. […] CT26 and Molt-4 cells were then seeded in 24 well plates. CT26 cells were allowed to adhere over night. Cells were exposed to methyl jasmonate (MJ; 3 mM) for 1 hour. Trypan blue exclusion test was performed and cells were counted.

[4] = molecular target: T1, voltage-dependent anion channel (Rattus norvegicus, UniProt Q9Z2L0); experiment: Voltage-dependent anion channel recording in planar lipid bilayer (channel alone); assay type: biochemical; details: 3 mM; voltage stepped from 0 mV to −40 mV
T1 construct: purified mitochondrial voltage-dependent anion channel reconstituted into a planar lipid bilayer; from tissue; host or cells: rat liver mitochondria
T1 sequence (Q9Z2L0 whole entry): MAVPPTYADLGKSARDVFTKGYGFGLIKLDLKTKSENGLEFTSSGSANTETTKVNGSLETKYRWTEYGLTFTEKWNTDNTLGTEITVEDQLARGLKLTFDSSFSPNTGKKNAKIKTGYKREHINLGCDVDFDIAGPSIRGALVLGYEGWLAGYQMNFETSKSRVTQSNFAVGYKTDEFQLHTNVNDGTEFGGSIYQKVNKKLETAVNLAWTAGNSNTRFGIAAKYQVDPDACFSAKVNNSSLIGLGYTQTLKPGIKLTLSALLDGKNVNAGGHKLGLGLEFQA
Experimental: Currents were measured with respect to the trans side of the membrane (ground).

[5] = molecular target: T2, purified rat brain HKI (Rattus norvegicus, UniProt P05708); experiment: Surface plasmon resonance analysis of jasmonate-HK interactions; assay type: binding; details: analyte injected at varying concentrations (MJ 0.375-6 mM); 25° C.
T2 construct: from tissue; host or cells: rat brain mitochondria
T2 sequence (P05708 whole entry): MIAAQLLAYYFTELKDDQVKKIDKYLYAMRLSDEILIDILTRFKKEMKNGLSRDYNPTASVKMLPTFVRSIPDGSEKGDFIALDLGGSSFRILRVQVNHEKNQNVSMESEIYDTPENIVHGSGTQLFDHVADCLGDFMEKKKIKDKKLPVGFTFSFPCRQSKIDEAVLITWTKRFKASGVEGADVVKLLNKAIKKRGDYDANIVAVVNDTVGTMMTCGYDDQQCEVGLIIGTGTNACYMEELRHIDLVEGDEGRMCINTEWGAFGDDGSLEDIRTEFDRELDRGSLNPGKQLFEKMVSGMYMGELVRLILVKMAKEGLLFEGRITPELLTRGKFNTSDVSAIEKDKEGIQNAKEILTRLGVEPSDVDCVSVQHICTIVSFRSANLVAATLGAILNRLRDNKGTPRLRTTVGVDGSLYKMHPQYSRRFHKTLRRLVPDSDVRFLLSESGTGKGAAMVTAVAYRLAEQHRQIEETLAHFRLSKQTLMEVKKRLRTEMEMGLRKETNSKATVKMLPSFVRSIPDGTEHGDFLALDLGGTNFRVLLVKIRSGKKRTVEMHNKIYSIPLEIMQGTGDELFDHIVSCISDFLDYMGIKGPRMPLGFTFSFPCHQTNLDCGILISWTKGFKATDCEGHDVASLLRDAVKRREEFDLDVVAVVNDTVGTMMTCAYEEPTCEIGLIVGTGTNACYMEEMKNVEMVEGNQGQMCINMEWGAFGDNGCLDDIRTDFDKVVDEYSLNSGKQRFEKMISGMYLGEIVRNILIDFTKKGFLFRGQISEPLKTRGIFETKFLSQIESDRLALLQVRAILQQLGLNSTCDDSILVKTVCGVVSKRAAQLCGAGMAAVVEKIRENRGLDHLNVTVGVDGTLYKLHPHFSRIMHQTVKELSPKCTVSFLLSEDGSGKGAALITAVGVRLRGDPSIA
Experimental: Rat brain HK-I was purified as following, crude brain mitochondria containing tightly bound HK-I were incubated with 1.2 mM glucose-6-phosphate and 0.5 mM K-EDTA to release the enzyme into the soluble fraction. Further purification of HK-I was achieved by affinity chromatography on Cibacron Blue-agarose (Pharmacia). The purified enzyme was concentrated and washed in 0.5 mM K-EDTA, 10 mM glucose, 1 mM dithiothreitol and 10 mM K-Hepes, pH 7.8, using an Amicon device and a 50,000 Da molecular mass cut-off membrane (Spectrum; type C). The concentrated enzyme (up to 1 mg/ml; 30-60 units/mg) was frozen in liquid nitrogen and stored at −80° C. until use (Azoulay-Zohar, 2004).
Surface plasmon resonance (SPR) is an optical biosensor technique that measures molecular binding events at a metal surface by detecting changes in the local refractive index. SPR is the surface-sensitive technique ideal for studying interactions between immobilized biomolecules (ligands) and a solution-phase analyte. The biosensor response is directly proportional to the mass of the bound analyte. The advantage of SPR for investigation of small molecular weight analytes over conventional techniques such as fluorescence or enzyme-linked immunosorbent assay is detection of an analyte being label-free and direct, without the need for labeling of analyte or multistep detection protocols (sandwich assay). […]

[6] = test system: rabbit immunoglobulin G (Rb IgG); experiment: Surface plasmon resonance, irrelevant protein control; assay type: binding; details: 6 mM and 3 mM
Experimental: (§2) SPR using ProteOn-EP5 (Bio-Rad, Hercules, Calif., USA) system has been applied to study the direct interaction of methyl jasmonate with hexokinase. This system allowed measuring ligand-analyte interactions in a 6×6 format in real time. Purified rat brain HKI and rabbit immunoglobulin G (Rb IgG; ligands) were diluted in 10 mM Na acetate pH 4 and 4.5, respectively, and coupled to a GLM sensor surface activated with 37.5 mg/ml N-Ethyl-N′-(3′ dimethylaminopropyl) carbodiimide hydrochloride and 7.5 mg/ml N-hydroxysuccinimide. HKI and IgG were added to saturate the chip at 100 μg/ml. Remaining reactive groups on the chip were then inactivated with 1 M ethanolamine pH 8.5. […] Methyl jasmonate and jasmonic acid (analytes) were diluted in running buffer (PBS X 1 with 0.005% Tween and 5% DMSO) and injected onto the sensor chip at varying concentrations. All experiments were performed at flow rate of 50 μl/min, at 25° C.

[7] = Solubility in SPR running buffer; assay type: physicochemical; details: PBS X 1 with 0.005% Tween and 5% DMSO
Experimental: as §2

- binding to immobilized Rb IgG (SPR) [6]: binds to hexokinase but not to Rb IgG
- solubility in the running buffer [7]: limited solubility
SMILES: CC/C=C\CC1C(=O)CCC1CC(=O)OC (stereo not shown) [methyl jasmonate]
- cellular ATP level [1]: significant and dose-dependent decrease of cellular ATP
- cellular ATP level [2]: significant and dose-dependent decrease of cellular ATP
- live/dead cells by Trypan blue exclusion [3]: still alive after 60 minutes
- current passing through voltage-dependent anion channel (no hexokinase) [4]: showed no effect on the current passing through voltage-dependent anion channel
- binding to immobilized hexokinase (SPR) [5]: bind to purified rat brain HKI in a dose-dependent manner
